Source: ChEMBL document CHEMBL1287771, “Novel hybrids of 15-membered 8a- and 9a-azahomoerythromycin A ketolides and quinolones as potent antibacterials” (2010)
Values after ≈ are worked out from the molar mass of the structure shown.

How the values were obtained:
Assay type in all cases: functional
Staphylococcus aureus [1] = experiment: Antibacterial activity against erythromycin A-susceptible Staphylococcus aureus B0329 by agar microdilution method
Moraxella catarrhalis = experiment: Antibacterial activity against Moraxella catarrhalis B0324 by agar microdilution method
Staphylococcus aureus [2] = experiment: Antibacterial activity against efflux-resistant Staphylococcus aureus B0331 by agar microdilution method
Streptococcus pyogenes [3] = experiment: Antibacterial activity against inducible macrolide-lincosamide-streptogramin B-resistant Streptococcus pyogenes B0543 by agar microdilution method
Streptococcus pneumoniae [4] = experiment: Antibacterial activity against erythromycin A-susceptible Streptococcus pneumoniae B0541 by agar microdilution method
Staphylococcus aureus [5] = experiment: Antibacterial activity against inducible macrolide-lincosamide-streptogramin B-resistant Staphylococcus aureus B0538 by agar microdilution method
Haemophilus influenzae = experiment: Antibacterial activity against Haemophilus influenzae B0529 by agar microdilution method
Streptococcus pneumoniae [6] = experiment: Antibacterial activity against constitutive macrolide-lincosamide-streptogramin B-resistant Streptococcus pneumoniae B0627 by agar microdilution method
Streptococcus pyogenes [7] = experiment: Antibacterial activity against erythromycin A-susceptible Streptococcus pyogenes B0542 by agar microdilution method
Staphylococcus aureus [8] = experiment: Antibacterial activity against constitutive macrolide-lincosamide-streptogramin B-resistant Staphylococcus aureus B0330 by agar microdilution method
Streptococcus pneumoniae [9] = experiment: Antibacterial activity against efflux-resistant Streptococcus pneumoniae B0326 by agar microdilution method
Streptococcus pyogenes [10] = experiment: Antibacterial activity against constitutive macrolide-lincosamide-streptogramin B-resistant Streptococcus pyogenes B0544 by agar microdilution method
Streptococcus pyogenes [11] = experiment: Antibacterial activity against efflux-resistant Streptococcus pyogenes B0545 by agar microdilution method

SMILES	MIC (Staphylococcus aureus [1]) [µg/mL]	MIC (Moraxella catarrhalis) [µg/mL]	MIC (Staphylococcus aureus [2]) [µg/mL]	MIC (Streptococcus pyogenes [3]) [µg/mL]	MIC (Streptococcus pneumoniae [4]) [µg/mL]	MIC (Staphylococcus aureus [5]) [µg/mL]	MIC (Haemophilus influenzae) [µg/mL]	MIC (Streptococcus pneumoniae [6]) [µg/mL]	MIC (Streptococcus pyogenes [7]) [µg/mL]	MIC (Staphylococcus aureus [8]) [µg/mL]	MIC (Streptococcus pneumoniae [9]) [µg/mL]	MIC (Streptococcus pyogenes [10]) [µg/mL]	MIC (Streptococcus pyogenes [11]) [µg/mL]
CC[C@H]1OC(=O)[C@H](C)C(=O)[C@H](C)[C@@H](O[C@@H]2O[C@H](C)C[C@H](N(C)C)[C@H]2O)[C@](C)(OCC(O)CN[C@H](C)Cc2ccccc2)C[C@@H](C)NC(=O)[C@H](C)[C@H](O)[C@@]1(C)O (some centres undefined)	0.5 (≈ 0.641 µM)	0.25 (≈ 0.321 µM)	2 (≈ 2.56 µM)	0.5 (≈ 0.641 µM)	≤ 0.125	2 (≈ 2.56 µM)	1 (≈ 1.28 µM)	2 (≈ 2.56 µM)	≤ 0.125	> 64	1 (≈ 1.28 µM)	4 (≈ 5.13 µM)	0.5 (≈ 0.641 µM)
C=CCO[C@]1(C)C[C@@H](C)NC(=O)[C@H](C)[C@H](O)[C@@](C)(O)[C@@H](CC)OC(=O)[C@H](C)C(=O)[C@H](C)[C@H]1O[C@@H]1O[C@H](C)C[C@H](N(C)C)[C@H]1O	2 (≈ 3.18 µM)	≤ 0.125	8 (≈ 12.7 µM)	16 (≈ 25.4 µM)	≤ 0.125	2 (≈ 3.18 µM)	16 (≈ 25.4 µM)	> 64	0.25 (≈ 0.398 µM)	> 64	16 (≈ 25.4 µM)	> 64	8 (≈ 12.7 µM)
CC[C@H]1OC(=O)[C@H](C)C(=O)[C@H](C)[C@@H](O[C@@H]2O[C@H](C)C[C@H](N(C)C)[C@H]2O)[C@](C)(OCC(O)CN(C)CCc2ccc([N+](=O)[O-])cc2)C[C@@H](C)NC(=O)[C@H](C)[C@H](O)[C@@]1(C)O (some centres undefined)	≤ 0.125	≤ 0.125	1 (≈ 1.21 µM)	0.25 (≈ 0.303 µM)	≤ 0.125	0.5 (≈ 0.606 µM)	1 (≈ 1.21 µM)	≤ 0.125	≤ 0.125	> 64	0.5 (≈ 0.606 µM)	1 (≈ 1.21 µM)	0.25 (≈ 0.303 µM)
C=CCO[C@]1(C)C[C@@H](C)C(=O)N[C@H](C)[C@H](O)[C@@](C)(O)[C@@H](CC)OC(=O)[C@H](C)C(=O)[C@H](C)[C@H]1O[C@@H]1O[C@H](C)C[C@H](N(C)C)[C@H]1O [3-O-DESCLADINOSYL-3-OXO-6-O-ALLYL-9A-AZA-9A-HOMOERYTHROMYCIN A]	> 64	16 (≈ 25.4 µM)	> 64	> 64	> 64	> 64	> 64	> 64	> 64	> 64	> 64	> 64	> 64
C=CCO[C@@]1(C)[C@@H](CC)OC(=O)[C@H](C)C(=O)[C@H](C)[C@@H](O[C@@H]2O[C@H](C)C[C@H](N(C)C)[C@H]2O)[C@](C)(OCC=C)C[C@@H](C)C(=O)N[C@H](C)[C@@H]1O [3-O-DESCLADINOSYL-6,12-DI-O-ALLYL-3-OXO-9A-AZA-9A-HOMOERYTHROMYCIN A]	8 (≈ 12 µM)	≤ 0.125	16 (≈ 23.9 µM)	32 (≈ 47.8 µM)	2 (≈ 2.99 µM)	8 (≈ 12 µM)	16 (≈ 23.9 µM)	> 64	2 (≈ 2.99 µM)	> 64	4 (≈ 5.98 µM)	> 64	8 (≈ 12 µM)
C=CCO[C@]1(C)C[C@@H](C)C(=O)N[C@H](C)[C@H](O)[C@@](C)(O)[C@@H](CC)OC(=O)[C@H](C)[C@@H](O[C@@H]2C[C@@](C)(OC)[C@@H](O)[C@H](C)O2)[C@H](C)[C@H]1O[C@@H]1O[C@H](C)C[C@H](N(C)C)[C@H]1O	> 64	4 (≈ 5.07 µM)	> 64	4 (≈ 5.07 µM)	> 64	> 64	64 (≈ 81.1 µM)	> 64	≤ 0.125	> 64	> 64	> 64	> 64
CC[C@H]1OC(=O)[C@H](C)[C@@H](O[C@@H]2C[C@@](C)(OC)[C@@H](O)[C@H](C)O2)[C@H](C)[C@@H](O[C@@H]2O[C@H](C)C[C@H](N(C)C)[C@H]2O)[C@](C)(OC/C=C/NCCc2ccc([N+](=O)[O-])cc2)C[C@@H](C)NC(=O)[C@H](C)[C@H](O)[C@@]1(C)O	0.5 (≈ 0.525 µM)	0.25 (≈ 0.262 µM)	32 (≈ 33.6 µM)	2 (≈ 2.1 µM)	0.06 (≈ 0.0629 µM)	64 (≈ 67.1 µM)	4 (≈ 4.2 µM)	32 (≈ 33.6 µM)	≤ 0.06	> 64	4 (≈ 4.2 µM)	> 64	16 (≈ 16.8 µM)
CC[C@H]1OC(=O)[C@H](C)C(=O)[C@H](C)[C@@H](O[C@@H]2O[C@H](C)C[C@H](N(C)C)[C@H]2O)[C@](C)(OCC(O)CN2CCN(c3ccc4c(c3F)c(=O)c(C(=O)OC)cn4C3CC3)CC2)C[C@@H](C)NC(=O)[C@H](C)[C@H](O)[C@@]1(C)O (some centres undefined)	4 (≈ 4.04 µM)	0.5 (≈ 0.505 µM)	32 (≈ 32.3 µM)	> 64	0.125 (≈ 0.126 µM)	> 64	4 (≈ 4.04 µM)	> 64	0.125 (≈ 0.126 µM)	> 64	0.25 (≈ 0.252 µM)	> 64	16 (≈ 16.2 µM)
CC[C@H]1OC(=O)[C@H](C)C(=O)[C@H](C)[C@@H](O[C@H]2C[C@H](O)[C@@H](N(C)C)[C@@H](C)O2)[C@](C)(OC/C=C/c2cnc3ccccc3c2)C[C@@H](C)/C(=N\O)[C@H](C)[C@@H](O)[C@]1(C)O	≤ 0.125	4 (≈ 5.29 µM)	0.5 (≈ 0.661 µM)	≤ 0.125	≤ 0.125	≤ 0.125	8 (≈ 10.6 µM)	4 (≈ 5.29 µM)	≤ 0.125	> 64	≤ 0.125	32 (≈ 42.3 µM)	≤ 0.125
CC[C@H]1OC(=O)[C@H](C)[C@@H](O[C@@H]2C[C@@](C)(OC)[C@@H](O)[C@H](C)O2)[C@H](C)[C@@H](O[C@@H]2O[C@H](C)C[C@H](N(C)C)[C@H]2O)[C@](C)(OC/C=C/N[C@H](C)Cc2ccc([N+](=O)[O-])cc2)C[C@@H](C)NC(=O)[C@H](C)[C@H](O)[C@@]1(C)O	0.5 (≈ 0.517 µM)	2 (≈ 2.07 µM)	64 (≈ 66.2 µM)	8 (≈ 8.27 µM)	≤ 0.125	> 64	16 (≈ 16.5 µM)	> 64	≤ 0.125	> 64	64 (≈ 66.2 µM)	> 64	32 (≈ 33.1 µM)
CC[C@H]1OC(=O)[C@H](C)C(=O)[C@H](C)[C@@H](O[C@@H]2O[C@H](C)C[C@H](N(C)C)[C@H]2O)[C@](C)(OCC=Cc2cnc3ccccc3c2)C[C@@H](C)C(=O)[C@H](C)[C@H]2NC(=O)O[C@@]21C [CETHROMYCIN]	≤ 0.06	≤ 0.125	0.25 (≈ 0.326 µM)	≤ 0.06	0.06 (≈ 0.0783 µM)	0.25 (≈ 0.326 µM)	2 (≈ 2.61 µM)	≤ 0.125	≤ 0.06	> 64	≤ 0.06	1 (≈ 1.31 µM)	≤ 0.125
O=C(O)c1cn(C2CC2)c2cc(N3CCNCC3)c(F)cc2c1=O [CIPROFLOXACIN]		0.125 (≈ 0.377 µM)	≤ 0.125	0.25 (≈ 0.754 µM)	≤ 0.125		≤ 0.125	0.25 (≈ 0.754 µM)	2 (≈ 6.04 µM)	≤ 0.125	0.25 (≈ 0.754 µM)	0.5 (≈ 1.51 µM)	≤ 0.125
